# Data from publication PMC4441536 (Journal of Medicinal Chemistry, 2015).
# Values joined by “and” are separate entries in the source; they are usually repeats but may differ in a detail not shown here. Equal entries are not always repeated. Where two headings read alike, the source gives them in different places.
# Assays:
# CB1 (h) = CB1 (h) (Homo sapiens, UniProt P21554)
# M3 (h) = M3 (h) (Homo sapiens, UniProt P20309)
# 5-HT1A (h) = 5-HT1A (h) (Homo sapiens, UniProt P08908)
# physchem [1] = settings: D2O
# in vivo = settings: mouse, 5 mg/kg; for half-life: Terminal Half-Life
# physchem [2] = assay: physchem
# [3] = mouse, in vivo; for AUC / Cmax / Terminal Half-Life: 5 mg/kg
# A3 (h) = A3 (h) (Homo sapiens, UniProt P0DMS8)
# 5-HT3 (h) = 5-HT3 (h) (Homo sapiens, UniProt P46098)
# B2 (h) = B2 (h) (Homo sapiens, UniProt P30411)
# NK3 (h) = NK3 (h) (Homo sapiens, UniProt P29371)
# D1 (h) = D1 (h) (Homo sapiens, UniProt P21728)
# NK2 (h) = NK2 (h) (Homo sapiens, UniProt P21452)
# beta 1 (h) = beta 1 (h) (Homo sapiens, UniProt P08588)
# H2 (h) = H2 (h) (Homo sapiens, UniProt P25021)
# 5-HT2A (h) = 5-HT2A (h) (Homo sapiens, UniProt P28223)
# MT1 (ML1A) (h) = MT1 (ML1A) (h) (Homo sapiens, UniProt P48039)
# M2 (h) = M2 (h) (Homo sapiens, UniProt P08172)
# AT1 (h) = AT1 (h) (Homo sapiens, UniProt P30556)
# 5-HT7 (h) = 5-HT7 (h) (Homo sapiens, UniProt P34969)
# 5-HT1B = 5-HT1B (Rattus norvegicus, UniProt P28564)
# 5-HT6 (h) = 5-HT6 (h) (Homo sapiens, UniProt P50406)
# 5-HT5a (h) = 5-HT5a (h) (Homo sapiens, UniProt P47898)
# D2S (h) = D2S (h) (Homo sapiens, UniProt P14416)
# [4] = iv, IV 5 mg/kg, individual animals 2, 3, 4
# [5] = po, PO 5 mg/kg, individual animals 6, 7, 8
# AT1 (h), sequence (P30556 whole entry): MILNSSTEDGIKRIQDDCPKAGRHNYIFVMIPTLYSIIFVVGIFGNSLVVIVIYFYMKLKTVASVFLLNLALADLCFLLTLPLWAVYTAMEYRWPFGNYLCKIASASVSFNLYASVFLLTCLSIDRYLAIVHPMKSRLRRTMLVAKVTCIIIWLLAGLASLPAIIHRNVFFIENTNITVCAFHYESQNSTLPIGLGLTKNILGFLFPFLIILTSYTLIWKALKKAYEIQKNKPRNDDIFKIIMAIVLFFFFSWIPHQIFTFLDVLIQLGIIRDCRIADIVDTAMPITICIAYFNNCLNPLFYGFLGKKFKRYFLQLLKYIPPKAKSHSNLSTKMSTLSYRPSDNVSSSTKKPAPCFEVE
# D2S (h), sequence (P14416 1-414 isoform P14416-2): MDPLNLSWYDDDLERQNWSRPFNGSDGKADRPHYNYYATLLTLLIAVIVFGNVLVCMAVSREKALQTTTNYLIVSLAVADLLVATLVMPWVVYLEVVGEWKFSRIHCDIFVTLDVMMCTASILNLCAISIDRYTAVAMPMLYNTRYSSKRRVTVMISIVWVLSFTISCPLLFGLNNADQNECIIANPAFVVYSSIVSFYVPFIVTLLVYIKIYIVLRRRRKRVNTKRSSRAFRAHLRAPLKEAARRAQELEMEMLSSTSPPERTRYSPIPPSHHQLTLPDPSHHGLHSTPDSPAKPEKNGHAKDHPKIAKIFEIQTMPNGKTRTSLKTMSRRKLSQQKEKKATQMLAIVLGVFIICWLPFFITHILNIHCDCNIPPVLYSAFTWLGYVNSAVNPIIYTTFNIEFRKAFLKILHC
# CB1 (h), sequence (P21554 whole entry): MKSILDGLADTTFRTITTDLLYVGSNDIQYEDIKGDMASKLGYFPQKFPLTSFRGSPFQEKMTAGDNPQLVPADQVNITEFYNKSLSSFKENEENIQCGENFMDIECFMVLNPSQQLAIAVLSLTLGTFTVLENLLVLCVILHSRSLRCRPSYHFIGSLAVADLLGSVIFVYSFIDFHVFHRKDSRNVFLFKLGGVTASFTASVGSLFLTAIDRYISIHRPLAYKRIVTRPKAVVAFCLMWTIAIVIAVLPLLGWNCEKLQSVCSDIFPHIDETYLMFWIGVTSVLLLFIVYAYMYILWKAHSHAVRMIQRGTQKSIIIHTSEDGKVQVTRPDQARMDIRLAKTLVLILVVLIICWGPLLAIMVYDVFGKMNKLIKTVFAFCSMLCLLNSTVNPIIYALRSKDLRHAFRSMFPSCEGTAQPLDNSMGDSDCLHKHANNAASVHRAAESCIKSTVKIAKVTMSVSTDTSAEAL
# beta 1 (h), sequence (P08588 whole entry): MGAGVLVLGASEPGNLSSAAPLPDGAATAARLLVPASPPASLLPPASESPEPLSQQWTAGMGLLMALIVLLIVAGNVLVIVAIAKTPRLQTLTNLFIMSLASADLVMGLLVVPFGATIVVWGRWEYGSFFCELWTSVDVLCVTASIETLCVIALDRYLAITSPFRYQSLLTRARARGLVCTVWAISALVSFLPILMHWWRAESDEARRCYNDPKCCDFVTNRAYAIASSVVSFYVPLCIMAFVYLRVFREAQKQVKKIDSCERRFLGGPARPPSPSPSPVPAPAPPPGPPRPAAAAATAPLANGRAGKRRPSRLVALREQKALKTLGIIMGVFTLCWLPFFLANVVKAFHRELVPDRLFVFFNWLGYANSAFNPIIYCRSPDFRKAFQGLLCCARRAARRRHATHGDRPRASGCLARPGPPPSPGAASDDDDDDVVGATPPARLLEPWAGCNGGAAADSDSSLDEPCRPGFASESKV
# 5-HT3 (h), sequence (P46098 24-478): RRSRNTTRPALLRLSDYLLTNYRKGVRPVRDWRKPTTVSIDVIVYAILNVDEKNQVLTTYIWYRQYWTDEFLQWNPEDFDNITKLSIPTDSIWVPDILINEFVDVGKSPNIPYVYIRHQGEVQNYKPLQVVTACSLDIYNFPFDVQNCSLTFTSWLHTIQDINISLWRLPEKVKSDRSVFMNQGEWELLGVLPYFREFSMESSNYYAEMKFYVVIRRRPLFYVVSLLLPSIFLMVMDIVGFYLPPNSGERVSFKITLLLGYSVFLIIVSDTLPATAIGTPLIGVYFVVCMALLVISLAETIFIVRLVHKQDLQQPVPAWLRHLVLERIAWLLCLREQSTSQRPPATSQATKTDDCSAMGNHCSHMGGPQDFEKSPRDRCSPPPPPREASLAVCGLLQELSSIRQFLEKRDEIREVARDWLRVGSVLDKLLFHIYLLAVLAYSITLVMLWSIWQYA
# M2 (h), sequence (P08172 whole entry): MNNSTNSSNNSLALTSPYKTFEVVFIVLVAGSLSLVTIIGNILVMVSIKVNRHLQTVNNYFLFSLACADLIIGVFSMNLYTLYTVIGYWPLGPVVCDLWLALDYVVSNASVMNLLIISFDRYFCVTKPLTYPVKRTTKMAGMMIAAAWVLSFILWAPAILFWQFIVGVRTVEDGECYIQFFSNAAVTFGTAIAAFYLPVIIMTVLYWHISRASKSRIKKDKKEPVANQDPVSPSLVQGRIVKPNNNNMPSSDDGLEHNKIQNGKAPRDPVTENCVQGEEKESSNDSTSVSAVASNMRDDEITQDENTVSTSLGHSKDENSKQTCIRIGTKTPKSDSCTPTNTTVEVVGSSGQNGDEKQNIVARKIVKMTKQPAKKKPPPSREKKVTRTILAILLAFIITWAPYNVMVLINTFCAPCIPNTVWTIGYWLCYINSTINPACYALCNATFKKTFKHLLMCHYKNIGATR
# D1 (h), sequence (P21728 whole entry): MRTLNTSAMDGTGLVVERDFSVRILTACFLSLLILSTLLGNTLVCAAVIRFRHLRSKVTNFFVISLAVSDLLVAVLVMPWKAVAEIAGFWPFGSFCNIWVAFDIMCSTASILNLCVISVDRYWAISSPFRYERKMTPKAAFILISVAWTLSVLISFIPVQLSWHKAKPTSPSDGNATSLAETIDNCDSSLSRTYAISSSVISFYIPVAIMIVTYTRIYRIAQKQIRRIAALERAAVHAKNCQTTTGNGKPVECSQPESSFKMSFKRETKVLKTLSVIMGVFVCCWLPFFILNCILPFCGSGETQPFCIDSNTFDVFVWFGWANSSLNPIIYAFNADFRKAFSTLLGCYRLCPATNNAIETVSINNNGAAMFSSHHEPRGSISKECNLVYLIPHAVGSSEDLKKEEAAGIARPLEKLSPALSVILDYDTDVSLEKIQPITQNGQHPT
# 5-HT2A (h), sequence (P28223 whole entry): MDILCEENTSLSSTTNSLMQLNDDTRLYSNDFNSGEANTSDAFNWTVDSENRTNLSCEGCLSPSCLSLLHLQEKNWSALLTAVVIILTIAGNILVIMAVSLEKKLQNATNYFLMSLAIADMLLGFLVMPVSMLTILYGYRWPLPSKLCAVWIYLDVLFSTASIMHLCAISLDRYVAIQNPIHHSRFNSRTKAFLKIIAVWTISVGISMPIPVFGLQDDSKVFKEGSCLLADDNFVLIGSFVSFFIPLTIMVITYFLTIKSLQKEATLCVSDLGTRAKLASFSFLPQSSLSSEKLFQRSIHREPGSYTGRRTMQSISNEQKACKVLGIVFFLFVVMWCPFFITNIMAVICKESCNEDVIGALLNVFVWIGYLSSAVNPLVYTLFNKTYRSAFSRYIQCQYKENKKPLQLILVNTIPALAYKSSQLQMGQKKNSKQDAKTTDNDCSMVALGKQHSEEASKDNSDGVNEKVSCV
# 5-HT5a (h), sequence (P47898 whole entry): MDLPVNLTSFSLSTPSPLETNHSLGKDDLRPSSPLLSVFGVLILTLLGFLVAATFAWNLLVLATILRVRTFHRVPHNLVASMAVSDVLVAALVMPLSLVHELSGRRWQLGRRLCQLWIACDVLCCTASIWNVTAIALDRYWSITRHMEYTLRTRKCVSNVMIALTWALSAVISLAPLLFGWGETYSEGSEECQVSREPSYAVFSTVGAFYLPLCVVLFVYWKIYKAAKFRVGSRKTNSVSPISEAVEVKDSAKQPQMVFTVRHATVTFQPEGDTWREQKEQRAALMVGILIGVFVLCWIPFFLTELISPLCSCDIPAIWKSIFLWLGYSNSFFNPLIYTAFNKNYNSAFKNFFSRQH
# 5-HT1B, sequence (P28564 whole entry): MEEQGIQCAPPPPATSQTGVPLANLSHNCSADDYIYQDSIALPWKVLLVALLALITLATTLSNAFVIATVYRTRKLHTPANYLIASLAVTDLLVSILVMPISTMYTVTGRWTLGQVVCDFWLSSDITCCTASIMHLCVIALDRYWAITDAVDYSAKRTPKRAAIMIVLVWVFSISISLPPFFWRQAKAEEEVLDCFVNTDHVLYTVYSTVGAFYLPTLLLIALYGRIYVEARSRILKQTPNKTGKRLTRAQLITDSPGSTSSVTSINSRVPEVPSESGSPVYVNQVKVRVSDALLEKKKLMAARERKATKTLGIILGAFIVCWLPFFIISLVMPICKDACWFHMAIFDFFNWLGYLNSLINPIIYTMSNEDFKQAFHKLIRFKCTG
# A3 (h), sequence (P0DMS8 whole entry): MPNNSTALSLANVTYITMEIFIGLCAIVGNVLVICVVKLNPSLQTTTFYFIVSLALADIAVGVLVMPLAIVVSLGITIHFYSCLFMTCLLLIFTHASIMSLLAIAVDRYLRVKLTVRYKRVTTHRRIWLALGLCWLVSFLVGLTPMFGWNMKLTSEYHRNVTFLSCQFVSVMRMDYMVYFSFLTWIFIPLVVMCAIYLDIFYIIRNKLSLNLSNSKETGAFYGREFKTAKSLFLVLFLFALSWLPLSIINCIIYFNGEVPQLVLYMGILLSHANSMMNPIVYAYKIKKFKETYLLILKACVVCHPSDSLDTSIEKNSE
molecule,measurement,setting,value
CCCCCCC(C)(C)c1ccc([C@@H]2C[C@H](O)CC[C@H]2CCCO)c(O)c1 [CP 55940],nH Ref,CB1 (h),0.8
"C[N+]1(C)CCC(OC(=O)C(c2ccccc2)c2ccccc2)CC1.[I-] [Compound 4-DAMP, 4-DAMP]",nH Ref,M3 (h),1.3
"CCCN(CCC)C1CCc2cccc(O)c2C1 (centres unmarked) [Compound 8-OH-DPAT, 8-OH-DPAT]",nH Ref,5-HT1A (h),1.2
"Cn1cc(CCn2cnc(-c3cnn(C)c3)c2-c2ccc(C#N)cc2)cn1 [Compound 13, 4-(4-(1-methyl-1H-pyrazol-4-yl)-1-(2-(1-methyl-1H-pyrazol-4-yl)ethyl)-1H-imidazol-5-yl)benzonitrile]",solubility at 24 h,physchem [1],25 mM
same,Cmax,in vivo; [4],9.53 µM
same,half-life,in vivo; [4],50.9 min
same,Tmax,"in vivo; iv, Tmax, IV 5 mg/kg, individual animals 2, 3, 4",4.98 min
same,bioavailability,in vivo; po,70%
same,Cmax,in vivo; [5],6.46 µM
same,half-life,in vivo; [5],45.4 min
same,logD,physchem [2],1.05
same,volume of distribution,[3],moderate
same,AUC,[3]; iv,5.875 µM·h and 7.614 µM·h
same,Cmax,[3]; iv,10.4 µM and 13.8 µM
same,Terminal Half-Life,[3]; iv,59.8 min and 56.6 min
same,AUC,[3]; po,5.161 µM·h and 4.542 µM·h
same,Cmax,[3]; po,6.12 µM and 4.88 µM
same,Terminal Half-Life,[3]; po,68.4 min and 49.3 min
CNC(=O)[C@H]1O[C@@H](n2cnc3c(NCc4cccc(I)c4)ncnc32)[C@H](O)[C@@H]1O [IB-MECA],nH Ref,A3 (h),0.7
CN1[C@@H]2CC[C@H]1C[C@@H](OC(=O)c1cc(Cl)cc(Cl)c1)C2 [MDL 72222],nH Ref,5-HT3 (h),1.1
N=C(N)NCCC[C@@H](N)C(=O)N[C@@H](CCCNC(=N)N)C(=O)N1CCC[C@H]1C(=O)N1C[C@H](O)C[C@H]1C(=O)NCC(=O)N[C@@H](Cc1ccccc1)C(=O)N[C@@H](CO)C(=O)N[C@H](Cc1ccccc1)C(=O)N[C@@H](Cc1ccccc1)C(=O)N[C@@H](CCCNC(=N)N)C(=O)O [NPC 567],nH Ref,B2 (h),0.8
CC[C@H](NC(=O)c1c(C)c(-c2ccccc2)nc2ccccc12)c1ccccc1 [SB 222200],nH Ref,NK3 (h),1.0
CN1CCc2cc(Cl)c(O)cc2[C@@H](c2ccccc2)C1 [SCH 23390],nH Ref,D1 (h),0.9
CCCC[C@H](NC(=O)[C@H](CC(C)C)NC(=O)CNC(=O)[C@@H](NC(=O)[C@H](Cc1ccccc1)NC(=O)[C@H](CO)NC(=O)[C@@H](N)CC(=O)O)C(C)C)C(N)=O [[Nleu10]-NKA (4-10)],nH Ref,NK2 (h),0.9
CC(C)NCC(O)COc1ccc(CC(N)=O)cc1 (centres unmarked) [atenolol],nH Ref,beta 1 (h),0.9
CN/C(=N/CCSCc1nc[nH]c1C)NC#N [cimetidine],nH Ref,H2 (h),0.9
O=C(c1ccc(F)cc1)C1CCN(CCn2c(=O)[nH]c3ccccc3c2=O)CC1 [ketanserin],nH Ref,5-HT2A (h),1.2
COc1ccc2[nH]cc(CCNC(C)=O)c2c1 [melatonin],nH Ref,MT1 (ML1A) (h),1.3
COc1ccccc1CNCCCCCCNCCCCCCCCNCCCCCCNCc1ccccc1OC [methoctramine],nH Ref,M2 (h),0.8
CNCC(=O)N[C@@H](CCCN=C(N)N)C(=O)N[C@H](C(=O)N[C@@H](Cc1ccc(O)cc1)C(=O)N[C@H](C(=O)N[C@@H](Cc1cnc[nH]1)C(=O)N1CCC[C@H]1C(=O)N[C@@H](C)C(=O)O)C(C)C)C(C)C [saralasin],nH Ref,AT1 (h),0.9
NCCc1c[nH]c2ccc(O)cc12 [serotonin],nH Ref,5-HT7 (h),0.6
same,nH Ref,5-HT1B,1.2
same,nH Ref,5-HT6 (h),0.8
same,nH Ref,5-HT5a (h),0.7
(+)butaclamol,nH Ref,D2S (h),1.3
